Reference: ChEMBL document CHEMBL4024706 (Eur J Med Chem, 2017)

Legend:
[1] = tested on: Phosphatidylinositol 4,5-bisphosphate 3-kinase catalytic subunit alpha isoform (Homo sapiens), P42336 [E542K]; assay: Inhibition of human partial length PIK3CA E542K mutant (R108 to N1068 residues) expressed in mammalian expression system assessed as residual activity at 1 uM by Kinomescan method relative to control
[2] = biological target: Cyclin-dependent kinase 17 (Homo sapiens) (UniProt Q00537); assay: Inhibition of wild-type human full length PCTK2 (M1 to F523 residues) expressed in bacterial expression system assessed as residual activity at 1 uM by Kinomescan method relative to control
[3] = biological target: Ribosomal protein S6 kinase alpha-2 (Homo sapiens) (UniProt Q15349); assay: Inhibition of wild-type human partial length C-terminal RSK3 kinase domain 2 (V403 to K700 residues) expressed in bacterial expression system assessed as residual activity at 1 uM by Kinomescan method relative to control
[4] = biological target: Serine/threonine-protein kinase Sgk1 (Homo sapiens) (UniProt O00141); assay: Inhibition of wild-type human partial length SGK (I60 to L431 residues) expressed in mammalian expression system assessed as residual activity at 1 uM by Kinomescan method relative to control
[5] = biological target: G protein-coupled receptor kinase 3 (Homo sapiens) (UniProt P35626); assay: Inhibition of wild-type human full length GRK3 (M1 to L688 residues) expressed in mammalian expression system assessed as residual activity at 1 uM by Kinomescan method relative to control
[6] = biological target: Tyrosine-protein kinase JAK1 (Homo sapiens) (UniProt P23458); assay: Inhibition of wild-type human partial length JAK1 JH1 catalytic domain (V856 to K1154 residues) expressed in bacterial expression system assessed as residual activity at 1 uM by Kinomescan method relative to control
[7] = biological target: Phosphatidylinositol 4-phosphate 5-kinase type-1 gamma (Homo sapiens) (UniProt O60331); assay: Inhibition of wild-type human partial length PIP5K1C (M1 to T668 residues) expressed in mammalian expression system assessed as residual activity at 1 uM by Kinomescan method relative to control
[8] = biological target: Serine/threonine-protein kinase Nek11 (Homo sapiens) (UniProt Q8NG66); assay: Inhibition of wild-type human partial length NEK11 (M1 to E313 residues) expressed in mammalian expression system assessed as residual activity at 1 uM by Kinomescan method relative to control
[9] = biological target: TGF-beta receptor type-1 (Homo sapiens) (UniProt P36897); assay: Inhibition of wild-type human partial length TGFBR1 (D179 to M503 residues) expressed in bacterial expression system assessed as residual activity at 1 uM by Kinomescan method relative to control
[10] = biological target: Serine/threonine-protein kinase PknB (Mycobacterium tuberculosis) (UniProt P9WI81); assay: Inhibition of wild-type Mycobacterium tuberculosis H37Rv ATCC 25618 partial length PKNB (M1 to G279 residues) expressed in mammalian expression system assessed as residual activity at 1 uM by Kinomescan method relative to control
[11] = biological target: Dual specificity testis-specific protein kinase 1 (Homo sapiens) (UniProt Q15569); assay: Inhibition of wild-type human […] length TESK1 (R37 to S626 residues) expressed in bacterial expression system assessed as residual activity at 1 uM by Kinomescan method relative to control
[12] = tested on: Tyrosine-protein kinase ABL1 (Homo sapiens), P00519 [M351T]; assay: Inhibition of human phosphorylated ABL1 M351T mutant (S229 to K512 residues) expressed in mammalian expression system assessed as residual activity at 1 uM by Kinomescan method relative to control
[13] = biological target: Tyrosine-protein kinase Mer (Homo sapiens) (UniProt Q12866); assay: Inhibition of wild-type human partial length MERTK (R557 to L884 residues) expressed in bacterial expression system assessed as residual activity at 1 uM by Kinomescan method relative to control
[14] = biological target: Cyclin-dependent kinase 9 (Homo sapiens) (UniProt P50750); assay: Inhibition of wild-type human full length CDK9 (M1 to F372 residues) expressed in bacterial expression system assessed as residual activity at 1 uM by Kinomescan method relative to control
[15] = biological target: Tyrosine-protein kinase Tec (Homo sapiens) (UniProt P42680); assay: Inhibition of wild-type human partial length TEC (L341 to D620 residues) expressed in bacterial expression system assessed as residual activity at 1 uM by Kinomescan method relative to control
[16] = tested on: Receptor-type tyrosine-protein kinase FLT3 (Homo sapiens), P36888 [R834Q]; assay: Inhibition of human partial length FLT3 R834Q mutant (V592 to Y969 residues) expressed in mammalian expression system assessed as residual activity at 1 uM by Kinomescan method relative to control
[17] = biological target: Homeodomain-interacting protein kinase 4 (Homo sapiens) (UniProt Q8NE63); assay: Inhibition of wild-type human partial length HIPK4 (M1 to V384 residues) expressed in bacterial expression system assessed as residual activity at 1 uM by Kinomescan method relative to control
Pfeiffer = assay: Cell cycle arrest in human Pfeiffer cells assessed as increase in accumulation at G0/G1 phase after 48 hrs by propidium iodide/RNase staining based flow cytometric method; assay type: functional
[18] = tested on: Proto-oncogene tyrosine-protein kinase receptor Ret (Homo sapiens), P07949 [M918T]; assay: Inhibition of human partial length RET M918T mutant (E713 to D1014 residues) expressed in bacterial expression system assessed as residual activity at 1 uM by Kinomescan method relative to control
[19] = biological target: Cyclin-dependent kinase 19 (Homo sapiens) (UniProt Q9BWU1); assay: Inhibition of wild-type human partial length CDK11 (M1 to N360 residues) expressed in bacterial expression system assessed as residual activity at 1 uM by Kinomescan method relative to control
[20] = biological target: Serine/threonine-protein kinase PAK 1 (Homo sapiens) (UniProt Q13153); assay: Inhibition of wild-type human partial length PAK1 (S149 to H545 residues) expressed in bacterial expression system assessed as residual activity at 1 uM by Kinomescan method relative to control
[21] = biological target: Mitogen-activated protein kinase kinase kinase kinase 1 (Homo sapiens) (UniProt Q92918); assay: Inhibition of wild-type human full length HPK1 (M1 to R799 residues) expressed in bacterial expression system assessed as residual activity at 1 uM by Kinomescan method relative to control
[22] = biological target: MAP/microtubule affinity-regulating kinase 4 (Homo sapiens) (UniProt Q96L34); assay: Inhibition of wild-type human partial length MARK4 (K29 to G340 residues) expressed in bacterial expression system assessed as residual activity at 1 uM by Kinomescan method relative to control
[23] = biological target: Protein kinase C theta type (Homo sapiens) (UniProt Q04759); assay: Inhibition of wild-type human partial length PRKCQ (L350 to S706 residues) expressed in bacterial expression system assessed as residual activity at 1 uM by Kinomescan method relative to control
[24] = biological target: Serine/threonine-protein kinase WNK2 (Homo sapiens) (UniProt Q9Y3S1); assay: Inhibition of wild-type human partial length WNK2 (V47 to D482 residues) expressed in mammalian expression system assessed as residual activity at 1 uM by Kinomescan method relative to control
Sequence of Serine/threonine-protein kinase WNK2 (Homo sapiens) (Q9Y3S1 whole entry, the tested form may be a part): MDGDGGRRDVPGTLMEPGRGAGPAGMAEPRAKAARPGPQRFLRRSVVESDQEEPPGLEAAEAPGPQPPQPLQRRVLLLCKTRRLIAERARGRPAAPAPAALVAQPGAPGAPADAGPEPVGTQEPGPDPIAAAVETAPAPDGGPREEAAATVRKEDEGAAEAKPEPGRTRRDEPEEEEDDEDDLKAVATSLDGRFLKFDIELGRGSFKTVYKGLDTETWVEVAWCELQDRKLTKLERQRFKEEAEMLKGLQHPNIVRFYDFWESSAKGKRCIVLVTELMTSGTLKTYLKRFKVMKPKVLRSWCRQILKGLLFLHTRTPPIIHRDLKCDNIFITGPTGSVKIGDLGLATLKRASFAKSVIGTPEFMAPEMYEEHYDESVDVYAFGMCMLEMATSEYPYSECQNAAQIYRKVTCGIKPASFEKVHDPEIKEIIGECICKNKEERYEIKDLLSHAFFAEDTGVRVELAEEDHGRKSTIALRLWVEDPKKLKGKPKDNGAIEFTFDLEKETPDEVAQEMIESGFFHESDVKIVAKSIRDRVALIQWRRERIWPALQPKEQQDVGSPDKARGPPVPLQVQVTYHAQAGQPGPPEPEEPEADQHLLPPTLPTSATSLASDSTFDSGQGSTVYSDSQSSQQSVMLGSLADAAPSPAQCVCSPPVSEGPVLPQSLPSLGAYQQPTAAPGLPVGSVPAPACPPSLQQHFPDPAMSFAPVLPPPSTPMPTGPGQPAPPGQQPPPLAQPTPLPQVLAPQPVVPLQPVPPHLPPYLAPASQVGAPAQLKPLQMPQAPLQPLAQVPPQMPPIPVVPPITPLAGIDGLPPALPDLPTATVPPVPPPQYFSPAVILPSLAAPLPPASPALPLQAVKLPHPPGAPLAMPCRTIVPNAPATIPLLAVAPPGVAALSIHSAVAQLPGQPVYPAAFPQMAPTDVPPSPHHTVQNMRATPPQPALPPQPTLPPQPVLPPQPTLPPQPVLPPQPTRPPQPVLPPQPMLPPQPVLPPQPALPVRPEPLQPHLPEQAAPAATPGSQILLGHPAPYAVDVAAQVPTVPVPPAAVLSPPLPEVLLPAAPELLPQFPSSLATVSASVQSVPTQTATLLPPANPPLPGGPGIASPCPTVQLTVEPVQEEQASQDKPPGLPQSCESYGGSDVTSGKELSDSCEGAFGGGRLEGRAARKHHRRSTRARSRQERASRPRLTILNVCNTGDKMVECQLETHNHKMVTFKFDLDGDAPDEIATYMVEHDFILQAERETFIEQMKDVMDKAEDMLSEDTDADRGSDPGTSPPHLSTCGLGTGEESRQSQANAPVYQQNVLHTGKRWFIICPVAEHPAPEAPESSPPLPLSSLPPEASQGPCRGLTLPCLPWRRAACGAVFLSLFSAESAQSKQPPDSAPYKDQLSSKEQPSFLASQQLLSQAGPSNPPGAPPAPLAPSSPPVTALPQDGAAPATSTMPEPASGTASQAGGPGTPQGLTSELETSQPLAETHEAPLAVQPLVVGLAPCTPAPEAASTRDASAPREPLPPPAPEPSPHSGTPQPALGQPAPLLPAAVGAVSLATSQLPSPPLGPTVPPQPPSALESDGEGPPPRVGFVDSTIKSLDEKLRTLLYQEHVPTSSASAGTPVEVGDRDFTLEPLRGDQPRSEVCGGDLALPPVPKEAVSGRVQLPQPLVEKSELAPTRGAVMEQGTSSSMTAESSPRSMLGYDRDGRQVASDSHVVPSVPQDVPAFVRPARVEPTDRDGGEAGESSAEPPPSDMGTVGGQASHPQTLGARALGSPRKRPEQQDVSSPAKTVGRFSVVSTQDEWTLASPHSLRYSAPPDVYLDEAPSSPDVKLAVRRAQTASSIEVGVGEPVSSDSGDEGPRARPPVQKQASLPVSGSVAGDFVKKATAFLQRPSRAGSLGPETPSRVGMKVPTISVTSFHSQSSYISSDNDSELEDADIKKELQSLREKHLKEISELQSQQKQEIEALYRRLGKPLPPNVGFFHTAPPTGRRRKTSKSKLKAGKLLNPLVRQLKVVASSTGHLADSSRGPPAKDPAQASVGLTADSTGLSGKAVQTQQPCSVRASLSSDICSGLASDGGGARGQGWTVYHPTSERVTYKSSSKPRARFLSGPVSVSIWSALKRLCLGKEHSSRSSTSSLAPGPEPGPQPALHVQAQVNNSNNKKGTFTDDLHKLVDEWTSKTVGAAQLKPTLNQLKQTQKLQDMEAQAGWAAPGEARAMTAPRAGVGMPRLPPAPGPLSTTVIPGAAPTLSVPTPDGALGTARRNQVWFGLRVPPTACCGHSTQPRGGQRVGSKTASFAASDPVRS

Sequence of Tyrosine-protein kinase JAK1 (Homo sapiens) (P23458 whole entry, the tested form may be a part): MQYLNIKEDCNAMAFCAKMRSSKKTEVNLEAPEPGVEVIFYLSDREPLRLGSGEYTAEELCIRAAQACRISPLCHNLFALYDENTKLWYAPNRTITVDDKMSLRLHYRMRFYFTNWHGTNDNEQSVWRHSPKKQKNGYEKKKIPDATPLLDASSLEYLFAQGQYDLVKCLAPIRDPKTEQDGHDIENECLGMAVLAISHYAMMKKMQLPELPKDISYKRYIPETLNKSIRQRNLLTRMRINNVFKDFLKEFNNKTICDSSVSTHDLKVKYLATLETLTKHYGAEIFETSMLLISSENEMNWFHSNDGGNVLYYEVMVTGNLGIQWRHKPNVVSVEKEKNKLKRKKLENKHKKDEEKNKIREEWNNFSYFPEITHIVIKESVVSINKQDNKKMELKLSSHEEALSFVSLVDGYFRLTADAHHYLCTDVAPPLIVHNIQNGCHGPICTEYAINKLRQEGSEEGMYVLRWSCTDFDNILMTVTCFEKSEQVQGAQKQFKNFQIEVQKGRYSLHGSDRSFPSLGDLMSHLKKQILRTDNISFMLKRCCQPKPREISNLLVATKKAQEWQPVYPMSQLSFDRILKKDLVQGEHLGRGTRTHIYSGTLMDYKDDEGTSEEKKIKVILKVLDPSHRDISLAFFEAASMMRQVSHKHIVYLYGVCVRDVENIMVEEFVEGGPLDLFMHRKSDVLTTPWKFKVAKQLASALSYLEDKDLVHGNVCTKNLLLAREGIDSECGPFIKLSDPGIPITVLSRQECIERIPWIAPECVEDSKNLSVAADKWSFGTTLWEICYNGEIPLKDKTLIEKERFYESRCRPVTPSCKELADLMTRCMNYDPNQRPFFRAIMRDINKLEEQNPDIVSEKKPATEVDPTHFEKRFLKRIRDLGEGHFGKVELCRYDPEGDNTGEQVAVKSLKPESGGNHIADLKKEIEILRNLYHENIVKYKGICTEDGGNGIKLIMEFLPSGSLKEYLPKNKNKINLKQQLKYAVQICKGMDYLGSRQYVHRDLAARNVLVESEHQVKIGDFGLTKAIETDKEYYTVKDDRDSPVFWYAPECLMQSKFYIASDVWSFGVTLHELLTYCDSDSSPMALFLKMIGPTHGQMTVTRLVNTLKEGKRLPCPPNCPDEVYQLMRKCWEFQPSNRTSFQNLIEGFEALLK
Sequence of Tyrosine-protein kinase Tec (Homo sapiens) (P42680 whole entry, the tested form may be a part): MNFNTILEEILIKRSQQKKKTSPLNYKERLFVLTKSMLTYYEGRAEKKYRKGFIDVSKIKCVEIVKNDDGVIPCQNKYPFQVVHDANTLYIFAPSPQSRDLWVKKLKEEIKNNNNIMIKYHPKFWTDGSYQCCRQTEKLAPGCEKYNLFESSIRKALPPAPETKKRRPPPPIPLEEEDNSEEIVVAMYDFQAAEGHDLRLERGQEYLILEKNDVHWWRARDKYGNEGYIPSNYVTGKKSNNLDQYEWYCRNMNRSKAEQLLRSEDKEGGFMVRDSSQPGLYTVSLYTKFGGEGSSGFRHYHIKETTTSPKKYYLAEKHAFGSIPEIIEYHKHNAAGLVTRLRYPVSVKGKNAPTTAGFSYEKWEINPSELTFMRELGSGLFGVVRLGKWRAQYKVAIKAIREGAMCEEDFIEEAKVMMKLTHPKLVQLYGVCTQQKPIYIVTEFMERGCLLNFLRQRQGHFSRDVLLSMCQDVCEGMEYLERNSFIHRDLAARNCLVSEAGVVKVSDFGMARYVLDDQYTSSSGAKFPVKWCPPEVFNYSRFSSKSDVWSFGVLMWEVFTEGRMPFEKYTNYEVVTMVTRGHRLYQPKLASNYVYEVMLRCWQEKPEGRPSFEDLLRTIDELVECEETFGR
Sequence of Mitogen-activated protein kinase kinase kinase kinase 1 (Homo sapiens) (Q92918 whole entry, looked up, the tested form may be a part): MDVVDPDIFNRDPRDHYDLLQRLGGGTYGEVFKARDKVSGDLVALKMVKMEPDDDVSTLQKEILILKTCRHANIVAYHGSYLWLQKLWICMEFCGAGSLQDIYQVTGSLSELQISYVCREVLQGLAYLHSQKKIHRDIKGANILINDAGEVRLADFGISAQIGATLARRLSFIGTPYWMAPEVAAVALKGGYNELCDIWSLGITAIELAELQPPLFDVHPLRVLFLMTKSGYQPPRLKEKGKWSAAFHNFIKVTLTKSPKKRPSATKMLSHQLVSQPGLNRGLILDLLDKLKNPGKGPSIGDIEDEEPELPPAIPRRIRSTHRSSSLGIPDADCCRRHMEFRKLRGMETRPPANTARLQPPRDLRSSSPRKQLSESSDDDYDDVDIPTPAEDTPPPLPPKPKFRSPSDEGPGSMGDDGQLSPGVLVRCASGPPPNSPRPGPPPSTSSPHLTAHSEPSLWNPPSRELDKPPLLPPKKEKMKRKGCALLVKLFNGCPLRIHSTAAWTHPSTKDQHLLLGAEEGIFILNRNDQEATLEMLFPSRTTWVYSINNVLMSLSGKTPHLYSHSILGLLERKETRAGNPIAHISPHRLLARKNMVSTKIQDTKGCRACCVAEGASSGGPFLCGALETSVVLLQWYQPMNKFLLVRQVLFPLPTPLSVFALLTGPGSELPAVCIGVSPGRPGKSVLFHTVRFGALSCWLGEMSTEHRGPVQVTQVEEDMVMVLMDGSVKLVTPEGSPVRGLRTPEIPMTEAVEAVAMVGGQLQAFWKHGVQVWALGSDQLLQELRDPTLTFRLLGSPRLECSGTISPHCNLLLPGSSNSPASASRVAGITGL

C=CC(=O)Nc1cc(Nc2cc(-c3cccc(NC(=O)c4ccc(C(C)(C)C)cc4)c3C)cn(C)c2=O)ccc1C(=O)N1CCOCC1
Activity [1]: 94% | Activity [2]: 100% | Activity [3]: 83% | Activity [4]: 95% | Activity [5]: 73% | Activity [6]: 100% | Activity [7]: 100% | Activity [8]: 97% | Activity [9]: 93% | Activity [10]: 100% | Activity [11]: 90% | Activity [12]: 97% | Activity [13]: 100% | Activity [14]: 99% | Activity [15]: 95% | Activity [16]: 91% | Activity [17]: 79% | Activity (Pfeiffer): Dose-dependent effect | Activity [18]: 100% | Activity [19]: 100% | Activity [20]: 90% | Activity [21]: 100% | Activity [22]: 91% | Activity [23]: 91% | Activity [24]: 99%
